# Assay results taken from the supplement of paper PMC10307832.
# What was measured:
# Experiment in all cases: relative viability (nuclei count vs DMSO), 5 days (fraction); higher = more cells survive
# [1] = tested on: NCI-H2228
# How it was run: (§1)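 A single step with final 0.05% Triton X-100, 1% formaldehyde and 1 ug/ml Hoechst fixed the cells and stained nuclei 5 days after treatment. Lung cancer cell lines in 1536-well plates had been treated by pin tool the day after seeding with one drug alone or a fixed anchor-drug dose plus five library-drug doses (not always all listed) in √10 steps, and nuclei were counted on 4× images. Relative viability is the ratio of nuclei in treated wells to nuclei in vehicle wells, taken as the median of duplicate plates.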
# [2] = tested on: COR-L 105
# How it was run: as §1
# [3] = tested on: HOP-62
# How it was run: as §1
# [4] = tested on: NCI-H1755
# How it was run: as §1
# [5] = tested on: PC-14
# How it was run: as §1
# [6] = tested on: NCI-H2170
# How it was run: as §1
# [7] = tested on: UMC-11
# How it was run: as §1
# [8] = tested on: EKVX
# How it was run: as §1
# [9] = tested on: NCI-H1793
# How it was run: as §1
# [10] = tested on: NCI-H1734
# How it was run: as §1
# [11] = tested on: NCI-H2342
# How it was run: as §1
# [12] = tested on: SK-MES-1
# How it was run: as §1
# [13] = tested on: NCI-H838
# How it was run: as §1
# [14] = tested on: NCI-H647
# How it was run: as §1
# [15] = tested on: NCI-H2347
# How it was run: as §1
# [16] = tested on: HCC-15
# How it was run: as §1
# [17] = tested on: NCI-H2009
# How it was run: as §1
# [18] = tested on: NCI-H1395
# How it was run: as §1
# [19] = tested on: NCI-H1355
# How it was run: as §1
# [20] = tested on: COR-L23
# How it was run: as §1
# [21] = tested on: HARA
# How it was run: as §1
# [22] = tested on: NCI-H1993
# How it was run: as §1
# [23] = tested on: NCI-H358
# How it was run: as §1
smiles,measurement,setting,value
Oc1nc(-c2ccc(C(F)(F)F)cc2)nc2c1CSCC2 [XAV939] + COc1cccc2cc(-c3nc([C@H]4CC[C@H](C(=O)O)CC4)n4ncnc(N)c34)[nH]c12 [OSI-027] (partner 0.5 µM),relative viability,[1]; first compound 0.08 µM,0.704
same,relative viability,[1]; first compound 0.253 µM,0.467
same,relative viability,[1]; first compound 0.8 µM,0.479
same,relative viability,[1]; first compound 2.53 µM,0.546
same,relative viability,[2]; first compound 0.08 µM,0.722
same,relative viability,[2]; first compound 0.253 µM,0.589
same,relative viability,[2]; first compound 0.8 µM,0.5
same,relative viability,[2]; first compound 2.53 µM,0.482
same,relative viability,[3]; first compound 0.08 µM,1.01
same,relative viability,[3]; first compound 0.253 µM,0.773
same,relative viability,[3]; first compound 0.8 µM,0.763
same,relative viability,[3]; first compound 2.53 µM,0.574
same,relative viability,[4]; first compound 0.08 µM,0.731
same,relative viability,[4]; first compound 0.253 µM,0.683
same,relative viability,[4]; first compound 0.8 µM,0.739
same,relative viability,[4]; first compound 2.53 µM,0.585
same,relative viability,[5]; first compound 0.08 µM,1.09
same,relative viability,[5]; first compound 0.253 µM,0.772
same,relative viability,[5]; first compound 0.8 µM,0.725
same,relative viability,[5]; first compound 2.53 µM,0.639
same,relative viability,[6]; first compound 0.08 µM,0.749
same,relative viability,[6]; first compound 0.253 µM,0.493
same,relative viability,[6]; first compound 0.8 µM,0.643
same,relative viability,[6]; first compound 2.53 µM,0.611
same,relative viability,[7]; first compound 0.08 µM,0.456
same,relative viability,[7]; first compound 0.253 µM,0.478
same,relative viability,[7]; first compound 0.8 µM,0.538
same,relative viability,[7]; first compound 2.53 µM,0.44
same,relative viability,[8]; first compound 0.08 µM,0.719
same,relative viability,[8]; first compound 0.253 µM,0.686
same,relative viability,[8]; first compound 0.8 µM,0.593
same,relative viability,[8]; first compound 2.53 µM,0.532
same,relative viability,[9]; first compound 0.08 µM,0.308
same,relative viability,[9]; first compound 0.253 µM,0.232
same,relative viability,[9]; first compound 0.8 µM,0.298
same,relative viability,[9]; first compound 2.53 µM,0.27
same,relative viability,[10]; first compound 0.08 µM,0.632
same,relative viability,[10]; first compound 0.253 µM,0.551
same,relative viability,[10]; first compound 0.8 µM,0.575
same,relative viability,[10]; first compound 2.53 µM,0.51
same,relative viability,[11]; first compound 0.08 µM,0.596
same,relative viability,[11]; first compound 0.253 µM,0.481
same,relative viability,[11]; first compound 0.8 µM,0.531
same,relative viability,[11]; first compound 2.53 µM,0.464
same,relative viability,[12]; first compound 0.08 µM,0.576
same,relative viability,[12]; first compound 0.253 µM,0.584
same,relative viability,[12]; first compound 0.8 µM,0.631
same,relative viability,[12]; first compound 2.53 µM,0.424
same,relative viability,[13]; first compound 0.08 µM,0.375
same,relative viability,[13]; first compound 0.253 µM,0.371
same,relative viability,[13]; first compound 0.8 µM,0.365
same,relative viability,[13]; first compound 2.53 µM,0.301
same,relative viability,[14]; first compound 0.08 µM,0.722
same,relative viability,[14]; first compound 0.253 µM,0.46
same,relative viability,[14]; first compound 0.8 µM,0.656
same,relative viability,[14]; first compound 2.53 µM,0.464
same,relative viability,[15]; first compound 0.08 µM,0.571
same,relative viability,[15]; first compound 2.53 µM,0.217
same,relative viability,[16]; first compound 0.08 µM,0.797
same,relative viability,[16]; first compound 0.253 µM,0.619
same,relative viability,[16]; first compound 0.8 µM,0.738
same,relative viability,[16]; first compound 2.53 µM,0.655
same,relative viability,[17]; first compound 0.08 µM,0.676
same,relative viability,[17]; first compound 0.253 µM,0.561
same,relative viability,[17]; first compound 0.8 µM,0.507
same,relative viability,[17]; first compound 2.53 µM,0.369
same,relative viability,[18]; first compound 0.08 µM,0.656
same,relative viability,[18]; first compound 0.253 µM,0.612
same,relative viability,[18]; first compound 0.8 µM,0.556
same,relative viability,[18]; first compound 2.53 µM,0.634
same,relative viability,[19]; first compound 0.08 µM,0.396
same,relative viability,[19]; first compound 0.253 µM,0.353
same,relative viability,[19]; first compound 0.8 µM,0.368
same,relative viability,[19]; first compound 2.53 µM,0.274
same,relative viability,[20]; first compound 0.08 µM,0.824
same,relative viability,[20]; first compound 0.253 µM,0.765
same,relative viability,[20]; first compound 0.8 µM,0.77
same,relative viability,[20]; first compound 2.53 µM,0.618
same,relative viability,[21]; first compound 0.08 µM,0.436
same,relative viability,[21]; first compound 0.253 µM,0.424
same,relative viability,[21]; first compound 0.8 µM,0.3
same,relative viability,[21]; first compound 2.53 µM,0.467
same,relative viability,[22]; first compound 0.08 µM,0.563
same,relative viability,[22]; first compound 0.253 µM,0.493
same,relative viability,[22]; first compound 0.8 µM,0.596
same,relative viability,[22]; first compound 2.53 µM,0.461
same,relative viability,[23]; first compound 0.08 µM,0.793
same,relative viability,[23]; first compound 0.253 µM,0.624
same,relative viability,[23]; first compound 0.8 µM,0.785
same,relative viability,[23]; first compound 2.53 µM,0.605
